Laboratory results taken from patent US9232795B2, “Herbicidal compositions comprising 4-amino-3-chloro-6-(4-chloro-2-fluoro-3-methoxyphenyl) pyridine-2-carboxylic acid or a derivative thereof and flurtamone” (Dow AgroSciences LLC, priority 2012, dated 2016).

Experiments:
Assay type in all cases: in vivo
[1] = test system: Stellaria media (L.) Vill.; assay: greenhouse trial, foliar applied compositions, STEME (common chickweed)
Excerpt: (§1) More specifically, the following equation is used to calculate the expected activity of mixtures containing two herbicidal active ingredients: Expected=A+B−(A×B/100) A=observed efficacy of a first active ingredient at the same concentration as used in the mixture; B=observed efficacy of the second active ingredient (or product, which may contain a combination of active ingredients) at the same concentration as used in the mixture. For mixtures containing three herbicidal active ingredients, the following equation can be used to calculate the expected activity: Expected=100−[(100−A)(100−B)(100−C)/10,000] A=observed efficacy of a first active ingredient at the same concentration as used in the mixture; B=observed efficacy of a second active ingredient B at the same concentration as used in the mixture; C=observed efficacy of a third active ingredient C at the same concentration as used in the mixture.
(§2) Results in Tables 1-12 are greenhouse trial results for foliar applied compositions.
(§3) g/ha=grams acid equivalent per hectare for Cmpd 1 and grams active ingredient per hectare for flurtamone, flufenacet, and diflufenican Obs=observed value Exp=expected value as calculated by the equations set forth above. Cmpd 1=methyl 4-amino-3-chloro-6-(4-chloro-2-fluoro-3-methoxyphenyl)-pyridine-2-carboxylate

[2] = test system: Chenpodium album L.; assay: greenhouse trial, foliar applied compositions, CHEAL (common lambsquarters)
Excerpt: as §1, §2, §3

[3] = test system: Triticum aestivum (spring); assay: greenhouse trial, foliar applied compositions, TRZAS (spring wheat)
Excerpt: as §1, §2, §3

[4] = test system: Viola tricolor L.; assay: greenhouse trial, foliar applied compositions, VIOTR (wild violet)
Excerpt: as §1, §2, §3

[5] = test system: Abutilon theophrasti Medik.; assay: greenhouse trial, foliar applied compositions, ABUTH (velvetleaf)
Excerpt: as §1, §2, §3

[6] = test system: Amaranthus retroflexus L.; assay: greenhouse trial, foliar applied compositions, AMARE (redroot pigweed)
Excerpt: as §1, §2, §3

[7] = test system: Cyperus esculentus L.; assay: greenhouse trial, foliar applied compositions, CYPES (yellow nutsedge)
Excerpt: as §1, §2, §3

[8] = test system: Setaria faberi Herrm.; assay: greenhouse trial, foliar applied compositions, SETFA (giant foxtail)
Excerpt: as §1, §2, §3

[9] = test system: Euphorbia heterohylla L.; assay: greenhouse trial, foliar applied compositions, EPHHL (wild poinsettia)
Excerpt: as §1, §2, §3

[10] = test system: Cirsium arvense (L.) Scop.; assay: greenhouse trial, foliar applied compositions, CIRAR (Canada thistle)
Excerpt: as §1, §2, §3

[11] = test system: Ipomoea hederacea; assay: greenhouse trial, foliar applied compositions, IPOHE (ivyleaf morningglory)
Excerpt: as §1, §2, §3

[12] = foliar applied, Cmpd 1 5.00 g/ha

CC(C)N(C(=O)COc1nnc(C(F)(F)F)s1)c1ccc(F)cc1 [Flufenacet, N-(4-fluorophenyl)-N-(1-methylethyl)-2-[[5-(trifluoromethyl)-1,3,4-thiadiazol-2-yl]oxy]acetamide]
STEME Obs ([1]; Flufenacet 30 g/ha): 0
STEME Obs ([1]; Flufenacet 60 g/ha): 0
CHEAL Obs ([2]; Flufenacet 30 g/ha): 0
CHEAL Obs ([2]; Flufenacet 60 g/ha): 0
TRZAS Obs ([3]; Flufenacet 30 g/ha): 0
TRZAS Obs ([3]; Flufenacet 60 g/ha): 0
VIOTR Obs ([4]; Flufenacet 30 g/ha): 0
VIOTR Obs ([4]; Flufenacet 60 g/ha): 0
ABUTH Obs ([5]; Flufenacet 30 g/ha): 0
ABUTH Obs ([5]; Flufenacet 60 g/ha): 0
AMARE Obs ([6]; Flufenacet 30 g/ha): 0
AMARE Obs ([6]; Flufenacet 60 g/ha): 0
CYPES Obs ([7]; Flufenacet 30 g/ha): 0
CYPES Obs ([7]; Flufenacet 60 g/ha): 0
SETFA Obs ([8]; Flufenacet 30 g/ha): 0
SETFA Obs ([8]; Flufenacet 60 g/ha): 0
EPHHL Obs ([9]; Flufenacet 30 g/ha): 0
EPHHL Obs ([9]; Flufenacet 60 g/ha): 0
CIRAR Obs ([10]; Flufenacet 30 g/ha): 0
CIRAR Obs ([10]; Flufenacet 60 g/ha): 0
IPOHE Obs ([11]; Flufenacet 30 g/ha): 0
IPOHE Obs ([11]; Flufenacet 60 g/ha): 0

O=C(Nc1ccc(F)cc1F)c1cccnc1Oc1cccc(C(F)(F)F)c1 [Diflufenican, N-(2,4-difluorophenyl)-2-[3-(trifluromethyl)phenoxy]-3-pyridinecarboxamide]
STEME Obs ([1]; Diflufenican 25 g/ha): 10
STEME Obs ([1]; Diflufenican 50 g/ha): 15
CHEAL Obs ([2]; Diflufenican 25 g/ha): 25
CHEAL Obs ([2]; Diflufenican 50 g/ha): 25
TRZAS Obs ([3]; Diflufenican 25 g/ha): 0
TRZAS Obs ([3]; Diflufenican 50 g/ha): 0
VIOTR Obs ([4]; Diflufenican 25 g/ha): 10
VIOTR Obs ([4]; Diflufenican 50 g/ha): 15
ABUTH Obs ([5]; Diflufenican 25 g/ha): 15
ABUTH Obs ([5]; Diflufenican 50 g/ha): 15
AMARE Obs ([6]; Diflufenican 25 g/ha): 25
AMARE Obs ([6]; Diflufenican 50 g/ha): 50
CYPES Obs ([7]; Diflufenican 25 g/ha): 0
CYPES Obs ([7]; Diflufenican 50 g/ha): 0
SETFA Obs ([8]; Diflufenican 25 g/ha): 8
SETFA Obs ([8]; Diflufenican 50 g/ha): 5
EPHHL Obs ([9]; Diflufenican 25 g/ha): 43
EPHHL Obs ([9]; Diflufenican 50 g/ha): 50
CIRAR Obs ([10]; Diflufenican 25 g/ha): 28
CIRAR Obs ([10]; Diflufenican 50 g/ha): 25
IPOHE Obs ([11]; Diflufenican 25 g/ha): 10
IPOHE Obs ([11]; Diflufenican 50 g/ha): 13

CNC1=C(c2cccc(C(F)(F)F)c2)C(=O)C(c2ccccc2)O1 (racemic) [Flurtamone, (±)-5-(methylamino)-2-phenyl-4-[3-(trifluoromethyl)phenyl]-3(2H)-furanone]
STEME Obs ([1]; Flurtamone 62.5 g/ha): 20
STEME Obs ([1]; Flurtamone 125 g/ha): 30
CHEAL Obs ([2]; Flurtamone 62.5 g/ha): 25
CHEAL Obs ([2]; Flurtamone 125 g/ha): 40
TRZAS Obs ([3]; Flurtamone 62.5 g/ha): 0
TRZAS Obs ([3]; Flurtamone 125 g/ha): 0
VIOTR Obs ([4]; Flurtamone 62.5 g/ha): 25
VIOTR Obs ([4]; Flurtamone 125 g/ha): 30
ABUTH Obs ([5]; Flurtamone 62.5 g/ha): 40
ABUTH Obs ([5]; Flurtamone 125 g/ha): 63
AMARE Obs ([6]; Flurtamone 62.5 g/ha): 40
AMARE Obs ([6]; Flurtamone 125 g/ha): 65
CYPES Obs ([7]; Flurtamone 62.5 g/ha): 5
CYPES Obs ([7]; Flurtamone 125 g/ha): 8
SETFA Obs ([8]; Flurtamone 62.5 g/ha): 0
SETFA Obs ([8]; Flurtamone 125 g/ha): 10
EPHHL Obs ([9]; Flurtamone 62.5 g/ha): 25
EPHHL Obs ([9]; Flurtamone 125 g/ha): 40
CIRAR Obs ([10]; Flurtamone 62.5 g/ha): 88
CIRAR Obs ([10]; Flurtamone 125 g/ha): 95
IPOHE Obs ([11]; Flurtamone 62.5 g/ha): 25
IPOHE Obs ([11]; Flurtamone 125 g/ha): 33

COC(=O)c1nc(-c2ccc(Cl)c(OC)c2F)cc(N)c1Cl [Cmpd 1, methyl 4-amino-3-chloro-6-(4-chloro-2-fluoro-3-methoxyphenyl)-pyridine-2-carboxylate]
STEME Obs ([1]; Cmpd 1 1.25 g/ha): 20
STEME Obs ([1]; Cmpd 1 2.50 g/ha): 58
STEME Obs ([1]; Cmpd 1 5.00 g/ha): 65
STEME Obs [1, 12]: 65
CHEAL Obs ([2]; Cmpd 1 1.25 g/ha): 60
CHEAL Obs ([2]; Cmpd 1 2.50 g/ha): 83
CHEAL Obs ([2]; Cmpd 1 5.00 g/ha): 85
CHEAL Obs [2, 12]: 85
TRZAS Obs ([3]; Cmpd 1 1.25 g/ha): 0
TRZAS Obs ([3]; Cmpd 1 2.50 g/ha): 0
TRZAS Obs ([3]; Cmpd 1 5.00 g/ha): 0
VIOTR Obs ([4]; Cmpd 1 1.25 g/ha): 5
VIOTR Obs ([4]; Cmpd 1 2.50 g/ha): 15
VIOTR Obs ([4]; Cmpd 1 5.00 g/ha): 23
VIOTR Obs [4, 12]: 23
ABUTH Obs ([5]; Cmpd 1 1.25 g/ha): 78
ABUTH Obs ([5]; Cmpd 1 2.50 g/ha): 91
ABUTH Obs ([5]; Cmpd 1 5.00 g/ha): 98
AMARE Obs ([6]; Cmpd 1 1.25 g/ha): 30
AMARE Obs ([6]; Cmpd 1 2.50 g/ha): 93
AMARE Obs ([6]; Cmpd 1 5.00 g/ha): 78
AMARE Obs [6, 12]: 78
CYPES Obs ([7]; Cmpd 1 1.25 g/ha): 58
CYPES Obs ([7]; Cmpd 1 2.50 g/ha): 85
CYPES Obs ([7]; Cmpd 1 5.00 g/ha): 81
CYPES Obs [7, 12]: 81
SETFA Obs ([8]; Cmpd 1 1.25 g/ha): 0
SETFA Obs ([8]; Cmpd 1 2.50 g/ha): 5
SETFA Obs ([8]; Cmpd 1 5.00 g/ha): 0
EPHHL Obs ([9]; Cmpd 1 1.25 g/ha): 60
EPHHL Obs ([9]; Cmpd 1 2.50 g/ha): 89
EPHHL Obs ([9]; Cmpd 1 5.00 g/ha): 92
EPHHL Obs [9, 12]: 92
CIRAR Obs ([10]; Cmpd 1 1.25 g/ha): 20
CIRAR Obs ([10]; Cmpd 1 2.50 g/ha): 55
CIRAR Obs ([10]; Cmpd 1 5.00 g/ha): 75
CIRAR Obs [10, 12]: 75
IPOHE Obs ([11]; Cmpd 1 1.25 g/ha): 15
IPOHE Obs ([11]; Cmpd 1 2.50 g/ha): 15
IPOHE Obs ([11]; Cmpd 1 5.00 g/ha): 35
